Experimental data from publication PMC10828645 (Heliyon, 2024).
Where two headings read alike, the source gives them in different places.

Key:
[1] = Ionized fraction at pH 7.4 calculated from pKa; settings: for Ionized fraction fcation: pH 7.4, Eq. (5), from literature basic pKa; for Ionized fraction fanion: pH 7.4, Eq. (6), from literature acidic pKa
[2] = ref [1]; cited from earlier work
[3] = cited from earlier work
[4] = marketed drugs; ref [1],[7]; cited from earlier work
[5] = Equilibrium dialysis, unbound fraction in plasma; format: in vitro ADME, CD-1 mice; settings: CD-1, mouse, pH 7.4
[6] = format: in vivo, CD-1 mice; settings: CD-1, mouse, brain and plasma, intraperitoneal
[7] = Equilibrium dialysis, unbound fraction in brain homogenate; format: in vitro ADME, CD-1 mice; settings: CD-1, mouse, brain homogenate (10 % w/v), pH 7.4
[8] = marketed drugs, external validation, ref [1],[7]

Row | Compound | Ionized fraction fcation [1] | Basic_pKa [2] | Kp,brain ([3]; mouse, in vivo) | Kp,uu,brain ([3]; mouse, in vivo) | fu,b [4] | also measured
1 | CCN1CCCC1CNC(=O)c1cc(S(N)(=O)=O)ccc1OC (stereo not shown) [Sulpiride] | 0.9693 | 8.9 | 0.08 | 0.06 | – | Ionized fraction fanion [1]: 0.0017; Acidic_pKa [2]: 10.2
2 | CCC(=O)O[C@](Cc1ccccc1)(c1ccccc1)[C@H](C)CN(C)C [Propoxyphene] | 0.9844 | – | 2.90 | 0.85 | 0.033 | –
3 | CN(C)CCC=C1c2ccccc2C=Cc2ccccc21 [Cyclobenzaprine] | 0.9844 | 9.2 | 12.0 | 1.62 | 0.007 | –
4 | CN(C)CCCC1(c2ccc(F)cc2)OCc2cc(C#N)ccc21 (stereo not shown) [Citalopram] | 0.9937 | 9.6 | 5.10 | 0.68 | 0.031 | –
5 | CN[C@H]1CC[C@@H](c2ccc(Cl)c(Cl)c2)c2ccccc21 [Sertraline] | 0.9921 | 9.5 | – | – | – | –
6 | NC(=O)N1c2ccccc2C=Cc2ccccc21 [Carbamazepine] | – | – | 0.76 | 0.27 | – | Ionized fraction fanion [1]: 0.0003; Acidic_pKa [2]: 10.9
7 | O=c1n(CCCN2CCN(c3cccc(Cl)c3)CC2)nc2ccccn12 [Trazodone] | 0.3869 | 7.2 | – | 0.56 | 0.047 | Kp,brain [3, 8]: 0.61
8 | C=C[C@H]1C[N@@]2CC[C@H]1C[C@@H]2[C@@H](O)c1ccnc2ccc(OC)cc12 [Quinidine] | – | – | – | – | – | fraction unbound at 5 h, 1 μM [5]: 0.286; Kp uu at 2 h [6]: 0.05
9 | CNCCC(Oc1ccc(C(F)(F)F)cc1)c1ccccc1 (stereo not shown) [Fluoxetine] | 0.9980 | – | – | – | – | Kp,brain [3, 8]: 12.0; Kp,uu,brain [3, 8]: 0.89
10 | CC(C)NCC(O)COc1cccc2ccccc12 (stereo not shown) [Propranolol] | – | – | – | – | – | fraction unbound at 5 h, 1 μM [7]: 0.022; Kp uu at 2 h [6]: 3.08
11 | Cc1nc2n(c(=O)c1CCN1CCC(c3noc4cc(F)ccc34)CC1)CCCC2 [Risperidone] | 0.9091 | 8.4 | – | – | – | Kp,uu,brain [3, 8]: 0.26
12 | COCCCC/C(=N\OCCN)c1ccc(C(F)(F)F)cc1 [Fluvoxamine] | 0.9901 | – | – | – | – | –
13 | CC(=O)CC(c1ccccc1)c1c(O)c2ccccc2oc1=O (stereo not shown) [Warfarin] | – | – | – | – | – | fraction unbound at 5 h, 1 μM [5]: 0.097; fraction unbound at 5 h, 1 μM [7]: 0.281; Kp uu at 2 h [6]: 0.19
14 | CCN(CC)CCNC(=O)c1cc(Cl)c(N)cc1OC [Metoclopramide] | 0.9937 | – | 1.20 | 0.52 | 0.310 | Ionized fraction fanion [1]: 0.0001
15 | COc1ccc2c3c1O[C@H]1C(=O)CC[C@H]4[C@@H](C2)N(C)CC[C@]314 [Hydrocodone] | 0.9264 | 8.5 | 2.10 | 1.96 | 0.550 | –
16 | Nc1nnc(-c2cccc(Cl)c2Cl)c(N)n1 [Lamotrigine] | – | – | 1.10 | 0.64 | 0.220 | –
17 | Cc1ncc2n1-c1ccc(Cl)cc1C(c1ccccc1F)=NC2 [Midazolam] | – | – | – | – | 0.027 | Kp,uu,brain [3, 8]: 0.14

Row | Compound | Ionized fraction fcation [1] | Basic_pKa [2] | Kp,brain ([3]; mouse, in vivo) | Kp,uu,brain ([3]; mouse, in vivo) | fu,b [4] | also measured
18 | O=C1CC2(CCCC2)CC(=O)N1CCCCN1CCN(c2ncccn2)CC1 [Buspirone] | 0.5573 | – | – | – | – | –
19 | CCOc1ccc(NC(C)=O)cc1 [Phenacetin] | – | – | – | – | – | fraction unbound at 5 h, 1 μM [5]: 0.701; fraction unbound at 5 h, 1 μM [7]: 0.442; Kp uu at 2 h [6]: 0.55
20 | Fc1ccc([C@@H]2CCNC[C@H]2COc2ccc3c(c2)OCO3)cc1 [Paroxetine] | 0.9987 | – | 3.30 | 0.86 | 0.004 | –
21 | CCCC(C)(COC(N)=O)COC(=O)NC(C)C (stereo not shown) [Carisoprodol] | – | – | – | – | 0.202 | Ionized fraction fanion [1]: 0.0003; Acidic_pKa [2]: 11.0; Kp,brain [3, 8]: 0.66; Kp,uu,brain [3, 8]: 0.34
22 | COC(=O)C(c1ccccc1)C1CCCCN1 (stereo not shown) [Methylphenidate] | 0.9994 | 10.6 | 12.0 | 3.43 | 0.220 | –
23 | COc1ccc(C(CN(C)C)C2(O)CCCCC2)cc1 (stereo not shown) [Venlafaxine] | 0.9876 | 9.3 | – | – | 0.210 | Kp,brain [3, 8]: 4.20; Kp,uu,brain [3, 8]: 0.98
24 | C#CCN(C)[C@H](C)Cc1ccccc1 [Selegiline] | 0.5573 | 7.5 | 3.70 | 1.30 | 0.056 | –
25 | CCCC(C)(COC(N)=O)COC(N)=O [Meprobamate] | – | – | – | – | 0.760 | Ionized fraction fanion [1]: 0.0001; Acidic_pKa [2]: 11.3; Kp,uu,brain [3, 8]: 0.42
26 | CN1CCN(C2=Nc3cc(Cl)ccc3Nc3ccccc32)CC1 [Clozapine] | 0.3339 | – | – | – | 0.009 | Kp,brain [3, 8]: 4.10; Kp,uu,brain [3, 8]: 1.01
27 | O=C(CCCN1CCC(O)(c2ccc(Cl)cc2)CC1)c1ccc(F)cc1 [Haloperidol] | 0.8882 | – | – | – | 0.007 | Kp,brain [3, 8]: 13.0; Kp,uu,brain [3, 8]: 1.06
28 | CCCC(C)C1(CC)C(=O)NC(=S)NC1=O (stereo not shown) [Thiopental] | – | – | – | – | 0.146 | Ionized fraction fanion [1]: 0.2847; Acidic_pKa [2]: 7.80
29 | O=C1NC(=O)C(c2ccccc2)(c2ccccc2)N1 [Phenytoin] | – | – | – | – | – | Ionized fraction fanion [1]: 0.1118; Acidic_pKa [2]: 8.30; Kp,brain [3, 8]: 0.63; Kp,uu,brain [3, 8]: 0.28
30 | Cc1ccc(-c2nc3ccc(C)cn3c2CC(=O)N(C)C)cc1 [Zolpidem] | 0.2403 | 6.9 | 0.29 | 0.24 | 0.200 | –
31 | OCCOCCN1CCN(C(c2ccccc2)c2ccc(Cl)cc2)CC1 (stereo not shown) [Hydroxyzine] | 0.3339 | 7.1 | 7.70 | 1.51 | 0.010 | –
32 | CN(C)CCCN1c2ccccc2Sc2ccc(Cl)cc21 [Chlorpromazine] | 0.9901 | – | – | – | – | Kp,brain [3, 8]: 23.0; Kp,uu,brain [3, 8]: 0.65
33 | CN1CC[C@]23c4c5ccc(O)c4O[C@H]2[C@@H](O)C=C[C@H]3[C@H]1C5 [Morphine] | 0.8882 | – | – | – | – | Ionized fraction fanion [1]: 0.0038
34 | CNCCC=C1c2ccccc2CCc2ccccc21 [Nortriptyline] | 0.9980 | 10.1 | 11.0 | 1.63 | 0.005 | –
